Data on two compounds can be found in publication PMC9671208, “Synthesis, biological evaluation, and molecular docking of novel hydroxyzine derivatives as potential AR antagonists” (Frontiers in Chemistry, 2022).

One series has as its target T1, AR (Homo sapiens, UniProt P10275).
T1 sequence (P10275 1-920): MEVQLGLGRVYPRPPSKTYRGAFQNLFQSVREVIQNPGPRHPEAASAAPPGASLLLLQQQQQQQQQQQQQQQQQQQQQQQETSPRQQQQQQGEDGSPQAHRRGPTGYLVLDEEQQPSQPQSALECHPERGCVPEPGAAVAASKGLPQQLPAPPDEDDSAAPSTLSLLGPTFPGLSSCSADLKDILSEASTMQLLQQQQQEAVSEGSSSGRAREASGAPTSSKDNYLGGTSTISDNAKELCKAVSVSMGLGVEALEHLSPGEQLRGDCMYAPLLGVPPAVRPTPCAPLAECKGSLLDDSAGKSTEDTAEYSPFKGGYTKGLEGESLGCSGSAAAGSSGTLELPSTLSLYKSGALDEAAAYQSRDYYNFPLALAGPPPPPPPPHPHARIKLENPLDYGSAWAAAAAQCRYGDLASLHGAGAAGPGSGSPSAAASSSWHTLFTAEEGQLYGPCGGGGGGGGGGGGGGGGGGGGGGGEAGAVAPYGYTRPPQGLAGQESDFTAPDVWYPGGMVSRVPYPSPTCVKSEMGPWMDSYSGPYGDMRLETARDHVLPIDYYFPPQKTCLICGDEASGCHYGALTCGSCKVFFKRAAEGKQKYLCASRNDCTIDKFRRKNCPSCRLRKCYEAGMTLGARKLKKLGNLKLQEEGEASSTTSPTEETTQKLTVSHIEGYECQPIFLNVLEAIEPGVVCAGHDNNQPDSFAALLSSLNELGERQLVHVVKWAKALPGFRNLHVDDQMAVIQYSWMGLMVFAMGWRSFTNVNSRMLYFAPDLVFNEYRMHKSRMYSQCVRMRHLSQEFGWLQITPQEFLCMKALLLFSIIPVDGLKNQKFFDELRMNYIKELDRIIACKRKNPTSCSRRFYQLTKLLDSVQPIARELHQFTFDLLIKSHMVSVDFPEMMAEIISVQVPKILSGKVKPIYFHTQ
The experiment in a line: AR reporter gene (luciferase) assay. The note with it: read-out: AR antagonistic activity % (10 μM). Format: cell-based. As for the experimental part: Firefly and Renilla luciferase activities, were determined using the Dual-Glo™luciferase assay kit. RLUs were determined using the GloMax®96-Microplate Luminometer.
(In a reporter assay the amount or activity of a reporter protein is the signal.)

The next series deals with WPMY-1. As to the kind of experiment: CCK-8 cytotoxicity assay, WPMY-1 normal prostate epithelial cells. The class given is cell-based. Particulars: WPMY-1 normal human prostate epithelial cells, CCK-8, 24 h; mean ± SD of three experiments. As for the experimental part: (§1) Cell proliferation was measured using the CCK-8 assay kit ([Kaspers et al., 1997]; [Kaspers et al., 1998]; [Ding et al., 2010]). Cells were seeded into 96-well plates (>5*10^4) with approximately 100 ul of cell suspension per well and incubated in 37°C incubator for 4 h. Various concentrations of the compounds were then added and incubated for a further 24 h in a 37°C incubator. Finally, 10 ul CCK8 was added and incubated for 0.5–4 h, absorbance at 450 nm was determined. ([Guo et al., 2021]; [He et al., 2022a]; [Hu et al., 2022]).
(§2) The in vitro cytotoxic activity results of the synthesized derivatives 3–17 against human prostate cancer lines (PC-3, LNCaP, and DU145) and the human prostate epithelial cell line (WPMY-1) were evaluated, as shown in Table 1.

For another series, the system named is PC-3. The experiment in a line: CCK-8 cytotoxicity assay, PC-3. The note with it: Homo sapiens; PC-3 cells, CCK-8, 24 h; mean ± SD of three experiments. The class given is cell-based, human. As to the method:
as §1, §2
Background: Tetrazolium dyes change colour on reduction, which living cells bring about.

In the next series the test system is DU145. The experiment in a line: CCK-8 cytotoxicity assay, DU145. Format: cell-based, human. Particulars: Homo sapiens, DU-145; DU145 cells, CCK-8, 24 h; mean ± SD of three experiments. As for the experimental part: as §1, §2
A further series has as its system LNCaP. As to the kind of experiment: CCK-8 cytotoxicity assay, LNCaP. Particulars: Homo sapiens; LNCaP cells, CCK-8, 24 h; mean ± SD of three experiments. The class given is cell-based, human. As for the experimental part: as §1, §2

Take `OCCc1ccc(CN2CCN(C3c4ccccc4Sc4ccccc43)CC2)cc1` [Compound 17, 2-(4-((4-(9H-thioxanthen-9-yl)piperazin-1-yl)methyl)phenyl)ethan-1-ol]: the melting point is 121 to 122 °C. In addition, at AR, the inhibition at 10 µM worked out at 36.5 ± 0.79%. The 50% inhibitory concentration (IC50) in the series with WPMY-1 was greater than 50 µM. The same compound returned an IC50 in the series with PC-3 of 6.42 ± 0.52 µM. In the series with DU145, this compound registered an IC50 of 8.35 ± 0.28 µM. This compound also displayed an IC50 with LNCaP of 5.61 ± 0.86 µM.
In the case of `COc1ccc(CN2CCN(Cc3ccc(CCO)cc3)CC2)cc1` [Compound 14, 2-(4-((4-(4-methoxybenzyl)piperazin-1-yl)methyl)phenyl)ethan-1-ol], the melting point was 117 to 118 °C. Also, the inhibition at 10 µM at AR is 58.88 ± 0.23%. In the series on WPMY-1, this compound came in with an IC50 greater than 50 µM. In the series on PC-3, this compound registered an IC50 of 11.1 ± 0.67 µM. This compound yielded an IC50 in the series on DU145 of 24.1 ± 0.47 µM. In the series on LNCaP, this compound gave an IC50 of 16.2 ± 0.53 µM.

What is called IC50 is the concentration needed to halve the response being measured. High values mean weaker potency, low ones greater potency. As a reminder, the melting point is the temperature of the solid-liquid transition.
